Experimental data: PMC8063935, “Amphipathic Peptide Antibiotics with Potent Activity against Multidrug-Resistant Pathogens” (Pharmaceutics, 2021)
Converted amounts (≈) assume the structure as drawn. Read-outs that look alike come from different tables or passages of the source. Where a SMILES comes first, the peptide text is derived from it.

Experiments:
[1] = system: E. coli CP131 (mcr-3); assay: MIC / IC50, micro-broth dilution; type: cell-based, Escherichia coli; conditions: for IC50: OD600 of micro-broth dilution plates, four-parameter fit
Experimental: (§1) The MICs of all drugs were determined by micro-broth dilution method according to CLSI 2018 guidelines. The bacterial suspension used in the experiment was appropriate 1.5 × 10^6 colony-forming units (CFUs) per mL and mixed with the drug solution in a sterilized 96-well microtiter plate (Corning, New York, USA), then incubated at 37 °C for 16–18 h. MIC value was defined as the minimum drug concentration without visible bacteria. Meanwhile, the density of the bacteria at 600 nm was measured, and the corresponding IC50 was calculated using log (inhibitor) vs. response variable slope (four parameters) in Graphpad Prism version 8.3.0 software (San Diego, CA, USA). To assess the role of ROS production in the antibacterial activity of WW307, increasing concentrations of N-acetylcysteine (NAC) from 0 to 5 mM were added in culture medium, followed by MICs test.

[2] = system: E. coli G6 (blaNDM-5); assay: MIC / IC50, micro-broth dilution; type: cell-based, Escherichia coli; conditions: for MIC: micro-broth dilution, CLSI 2018, ~1.5 × 10^6 CFUs per mL, 37 °C, 16–18 h; for IC50: OD600 of micro-broth dilution plates, four-parameter fit
Experimental: as §1

[3] = system: E. coli C3 (blaNDM-1); assay: MIC / IC50, micro-broth dilution; type: cell-based, Escherichia coli; conditions: for MIC: micro-broth dilution, CLSI 2018, ~1.5 × 10^6 CFUs per mL, 37 °C, 16–18 h; for IC50: OD600 of micro-broth dilution plates, four-parameter fit
Experimental: as §1

[4] = system: P. cibarius HNCF44W (blaNDM-1 + tet(X6)); assay: MIC / IC50, micro-broth dilution; type: cell-based; conditions: for MIC: micro-broth dilution, CLSI 2018, ~1.5 × 10^6 CFUs per mL, 37 °C, 16–18 h; for IC50: OD600 of micro-broth dilution plates, four-parameter fit
Experimental: as §1

[5] = system: S. aureus G16 (RIF^R); assay: microbe, parasite or virus in culture; type: cell-based, Staphylococcus aureus; conditions: for IC50: OD600 of micro-broth dilution plates, four-parameter fit
Experimental: as §1

[6] = system: MRSA T144; assay: microbe, parasite or virus in culture; type: cell-based, Staphylococcus aureus; conditions: for MIC: micro-broth dilution, CLSI 2018, ~1.5 × 10^6 CFUs per mL, 37 °C, 16–18 h; for IC50: OD600 of micro-broth dilution plates, four-parameter fit
Experimental: as §1

[7] = system: E. coli 1F28 (tet(X4)); assay: microbe, parasite or virus in culture; type: cell-based, Escherichia coli; conditions: for MIC: micro-broth dilution, CLSI 2018, ~1.5 × 10^6 CFUs per mL, 37 °C, 16–18 h; for IC50: OD600 of micro-broth dilution plates, four-parameter fit
Experimental: as §1

[8] = system: E. coli B2 (mcr-1 + blaNDM-5); assay: microbe, parasite or virus in culture; type: cell-based, Escherichia coli; conditions: for IC50: OD600 of micro-broth dilution plates, four-parameter fit
Experimental: as §1

[9] = system: E. coli G92 (mcr-1); assay: microbe, parasite or virus in culture; type: cell-based, Escherichia coli; conditions: for IC50: OD600 of micro-broth dilution plates, four-parameter fit
Experimental: as §1

[10] = system: A. baumannii C222 (tet(X6)); assay: microbe, parasite or virus in culture; type: cell-based, Acinetobacter baumannii; conditions: for IC50: OD600 of micro-broth dilution plates, four-parameter fit
Experimental: as §1

[11] = system: Sheep RBCs; assay: Hemolysis analysis; type: cell-based; conditions: 8% sheep red blood cell suspension, 37 °C, 1 h, released hemoglobin at 576 nm; PBS negative, ddH2O positive control
Experimental: The hemolytic activity on all peptides was evaluated based on previous report. Briefly, fresh Sheep RBCs were washed twice with phosphate buffer (PBS), and then 8% red blood cell suspension was prepared. The increasing concentrations of AMPs and melittin were mixed with 8% red blood cell suspension, respectively, and incubated at 37 °C for 1 h. The sterilized PBS and double-distilled water (ddH2O) were used as blank and positive control, respectively. Afterwards, the supernatant was centrifuged to measure the absorption of released hemoglobin at 576 nm by an Infinite M200 Microplate reader (Tecan, Männedorf, Switzerland). The corresponding hemolysis rate was calculated.

[12] = E. coli CP131 (mcr-3), micro-broth dilution, CLSI 2018, ~1.5 × 10^6 CFUs per mL, 37 °C, 16–18 h
[13] = S. aureus G16 (RIF^R), micro-broth dilution, CLSI 2018, ~1.5 × 10^6 CFUs per mL, 37 °C, 16–18 h
[14] = E. coli B2 (mcr-1 + blaNDM-5), micro-broth dilution, CLSI 2018, ~1.5 × 10^6 CFUs per mL, 37 °C, 16–18 h
[15] = E. coli G92 (mcr-1), micro-broth dilution, CLSI 2018, ~1.5 × 10^6 CFUs per mL, 37 °C, 16–18 h
[16] = A. baumannii C222 (tet(X6)), micro-broth dilution, CLSI 2018, ~1.5 × 10^6 CFUs per mL, 37 °C, 16–18 h
[17] = Escherichia coli, read-out: MIC
[18] = Staphylococcus aureus, read-out: MIC

Row | Compound | MIC [1, 12] [mg/L] | MIC [2] [mg/L] | MIC [3] [mg/L] | MIC [4] [mg/L] | MIC [5, 13] [mg/L] | MIC [6] [mg/L] | MIC [7] [mg/L] | MIC [8, 14] [mg/L] | MIC [9, 15] [mg/L] | MIC [10, 16] [mg/L] | MIC [2, 17] [mg/L] | MIC [3, 17] [mg/L] | MIC ([4]; read-out: MIC) [mg/L] | MIC ([5]; Staphylococcus aureus) [mg/L] | MIC [6, 18] [mg/L] | MIC [7, 17] [mg/L] | MIC ([9]; Escherichia coli) [mg/L] | MIC ([10]; Acinetobacter baumannii) [mg/L] | IC50 ([1]; E. coli CP131 (mcr-3)) [mg/L] | IC50 [2] [mg/L] | further results
1 | colistin | 4 | 0.5 | <0.125 | >256 | 1 | 16 | 0.125 | 8 | 4 | <0.125 | – | – | – | – | – | – | – | – | – | – | –
2 | CN(C)c1cc(NC(=O)CNC(C)(C)C)c(O)c2c1C[C@H]1C[C@H]3[C@H](N(C)C)C(O)=C(C(N)=O)C(=O)[C@@]3(O)C(O)=C1C2=O [TIG, tigecycline] | – | – | – | – | – | – | – | – | – | – | 2 (≈ 3.41 µM) | 2 (≈ 3.41 µM) | 64 (≈ 109 µM) | < 0.0625 | 0.25 (≈ 0.427 µM) | 16 (≈ 27.3 µM) | 4 (≈ 6.83 µM) | 64 (≈ 109 µM) | – | – | MIC ([1]; Escherichia coli, E. coli CP131 (mcr-3), micro-broth dilution, CLSI 2018, ~1.5 × 10^6 CFUs per mL, 37 °C, 16–18 h, read-out: MIC): 2 mg/L (≈ 3.41 µM)
3 | CC[C@H](C)[C@H](NC(=O)CN)C(=O)NCC(=O)N[C@@H](C)C(=O)N[C@H](C(=O)N[C@@H](CC(C)C)C(=O)N[C@@H](CCCCN)C(=O)N[C@H](C(=O)N[C@@H](CC(C)C)C(=O)N[C@H](C(=O)N[C@H](C(=O)NCC(=O)N[C@@H](CC(C)C)C(=O)N1CCC[C@H]1C(=O)N[C@@H](C)C(=O)N[C@@H](CC(C)C)C(=O)N[C@H](C(=O)N[C@@H](CO)C(=O)N[C@@H](Cc1c[nH]c2ccccc12)C(=O)N[C@H](C(=O)N[C@@H](CCCCN)C(=O)N[C@@H](CCCNC(=N)N)C(=O)N[C@@H](CCCCN)C(=O)N[C@@H](CCCNC(=N)N)C(=O)N[C@@H](CCC(N)=O)C(=O)N[C@@H](CCC(N)=O)C(N)=O)[C@@H](C)CC)[C@@H](C)CC)[C@@H](C)O)[C@@H](C)O)C(C)C)C(C)C [Melittin, melittin] | 4 (≈ 1.41 µM) | 4 (≈ 1.41 µM) | 8 (≈ 2.81 µM) | 4 (≈ 1.41 µM) | 2 (≈ 0.703 µM) | 4 (≈ 1.41 µM) | 4 (≈ 1.41 µM) | 8 | 4 (≈ 1.41 µM) | 8 (≈ 2.81 µM) | – | – | – | – | – | – | – | – | 3.39 (≈ 1.19 µM) | 2.38 (≈ 0.836 µM) | IC50 [3]: 5.03 mg/L (≈ 1.77 µM); IC50 [4]: 2.39 mg/L (≈ 0.84 µM); IC50 ([5]; S. aureus G16 (RIF^R)): 1.19 mg/L (≈ 0.418 µM); IC50 [6]: 3.54 mg/L (≈ 1.24 µM); IC50 [7]: 2.62 mg/L (≈ 0.92 µM); IC50 ([8]; E. coli B2 (mcr-1 + blaNDM-5)): 4.36 mg/L; IC50 ([9]; E. coli G92 (mcr-1)): 3.55 mg/L (≈ 1.25 µM); HL50 (peptide concentration that causes 50% hemolysis) [11]: 14.39 µg/mL; IC50 ([10]; A. baumannii C222 (tet(X6))): 4.16 mg/L (≈ 1.46 µM)
4 | C[C@@H](O)[C@H]1C(=O)N2C(C(=O)O)=C(S[C@@H]3CN[C@H](C(=O)N(C)C)C3)[C@H](C)[C@H]12 [MEM, meropenem] | – | – | – | – | – | – | – | – | – | – | 64 (≈ 167 µM) | 8 (≈ 20.9 µM) | > 16 | 2 (≈ 5.22 µM) | 1 (≈ 2.61 µM) | 0.25 (≈ 0.652 µM) | < 0.125 | < 0.125 | – | – | MIC ([1]; Escherichia coli): < 0.125 mg/L; MIC ([8]; Escherichia coli): 32 mg/L (≈ 83.4 µM)
5 | CC(C)C[C@H](NC(=O)[C@H](Cc1c[nH]c2ccccc12)NC(=O)[C@H](Cc1c[nH]c2ccccc12)NC(=O)[C@@H](N)Cc1c[nH]c2ccccc12)C(=O)N[C@@H](CCCNC(=N)N)C(=O)N[C@@H](CCCNC(=N)N)C(=O)N[C@@H](CCCNC(=N)N)C(=O)N[C@@H](Cc1c[nH]c2ccccc12)C(N)=O [WW304] (H-WWWLRRRW-NH2) | 32 (≈ 23.8 µM) | 64 (≈ 47.6 µM) | 64 (≈ 47.6 µM) | 64 (≈ 47.6 µM) | 8 (≈ 5.95 µM) | 8 (≈ 5.95 µM) | 32 (≈ 23.8 µM) | 64 | 64 (≈ 47.6 µM) | 64 (≈ 47.6 µM) | – | – | – | – | – | – | – | – | 18.26 (≈ 13.6 µM) | 36.04 (≈ 26.8 µM) | IC50 [3]: 34.76 mg/L (≈ 25.9 µM); IC50 [4]: 33.60 mg/L (≈ 25 µM); IC50 ([5]; S. aureus G16 (RIF^R)): 2.11 mg/L (≈ 1.57 µM); IC50 [6]: 4.59 mg/L (≈ 3.42 µM); IC50 [7]: 18.13 mg/L (≈ 13.5 µM); IC50 ([8]; E. coli B2 (mcr-1 + blaNDM-5)): 36.12 mg/L; IC50 ([9]; E. coli G92 (mcr-1)): 31.96 mg/L (≈ 23.8 µM); HL50 (peptide concentration that causes 50% hemolysis) [11]: > 128 µg/mL; IC50 ([10]; A. baumannii C222 (tet(X6))): 34.74 mg/L (≈ 25.9 µM)
